{
  "source": "ChEMBL document CHEMBL1201862",
  "about": "“PubChem BioAssay data set” (2004)",
  "key": {"[1]": {"assay": "OVCAR4 cell viability loss – plate reader, dry powder, SA11, cytotoxicity control for PAX8 inhibitor project, dose response (AID 743150)", "assay_type": "functional, cell-based", "conditions": "OVCAR-4"}, "[2]": {"assay": "OVCAR-3 cell viability loss – plate reader, dry powder samples, PAX8 inhibitor project, dose response (AID 743044)", "assay_type": "functional, cell-based"}, "[3]": {"assay": "COV434 cell viability loss – plate reader, dry powder, SA7, cytotoxicity control for PAX8 inhibitor project, dose response (AID 743145)", "assay_type": "functional, cell-based"}, "Paired box protein Pax-8": {"biological_target": "Paired box protein Pax-8 (Homo sapiens, UniProt Q06710)", "sequence (Q06710 whole entry)": "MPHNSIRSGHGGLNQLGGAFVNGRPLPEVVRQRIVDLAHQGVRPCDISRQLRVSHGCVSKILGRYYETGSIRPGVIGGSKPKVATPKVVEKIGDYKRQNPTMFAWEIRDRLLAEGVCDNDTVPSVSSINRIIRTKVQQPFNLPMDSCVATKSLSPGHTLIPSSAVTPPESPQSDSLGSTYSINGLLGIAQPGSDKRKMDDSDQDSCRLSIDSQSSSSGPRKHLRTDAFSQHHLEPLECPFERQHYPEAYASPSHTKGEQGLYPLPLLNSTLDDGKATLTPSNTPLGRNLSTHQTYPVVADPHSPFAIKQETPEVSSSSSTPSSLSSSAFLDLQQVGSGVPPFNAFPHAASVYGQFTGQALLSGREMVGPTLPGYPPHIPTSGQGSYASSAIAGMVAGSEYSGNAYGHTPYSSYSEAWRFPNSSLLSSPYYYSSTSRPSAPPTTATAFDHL", "assay": "PAX8 transcriptional activity inhibition in RMG-I – RMG-I cells, luciferase, cherry-pick, dose response (AID 687027);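 further: luciferase reporter driven by Pax8 target thyroperoxidase promoter measured by SteadyGlo luminescence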", "assay_type": "functional, cell-based"}, "[4]": {"assay": "PAX5 cellular inhibition readout – cell-based, plate reader, dry powder samples, selectivity assay for PAX8 inhibitor project, dose response (AID 743047);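 further: HEK293 cells carrying a Pax5 driven CD19 promoter luciferase reporter; potency of inhibitors that lower reporter luminescence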", "assay_type": "functional"}, "[5]": {"assay": "PAX8-dependent cell viability loss – plate reader, dry powder, dose response (AID 743049)", "assay_type": "functional, cell-based"}, "[6]": {"assay": "OV-90 cell viability loss – plate reader, dry powder, SA8, PAX8 inhibitor project, dose response (AID 743149)", "assay_type": "functional, cell-based"}, "[7]": {"assay": "inhibitors acting on PAX2 in cells – cell-based, plate reader, dry powder samples, selectivity assay for PAX8 inhibitor project, dose response (AID 743048);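 further: HEK293 cells carrying a WT1 promoter luciferase reporter driven by expressed Pax2; potency is for inhibition of Pax2 driven reporter signal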", "assay_type": "functional"}, "[8]": {"assay": "blockers of HIV-1 envelope-mediated cell-cell fusion – cherry-pick, dose response (AID 652057)", "assay_type": "functional, cell-based"}, "[9]": {"assay": "OVCAR8 cell viability loss – plate reader, dry powder samples, PAX8 project, dose response (AID 743197)", "assay_type": "functional, cell-based", "conditions": "OVCAR-8"}, "[10]": {"biological_target": "Metabotropic glutamate receptor 3 (Rattus norvegicus, UniProt P31422)", "sequence (P31422 whole entry)": "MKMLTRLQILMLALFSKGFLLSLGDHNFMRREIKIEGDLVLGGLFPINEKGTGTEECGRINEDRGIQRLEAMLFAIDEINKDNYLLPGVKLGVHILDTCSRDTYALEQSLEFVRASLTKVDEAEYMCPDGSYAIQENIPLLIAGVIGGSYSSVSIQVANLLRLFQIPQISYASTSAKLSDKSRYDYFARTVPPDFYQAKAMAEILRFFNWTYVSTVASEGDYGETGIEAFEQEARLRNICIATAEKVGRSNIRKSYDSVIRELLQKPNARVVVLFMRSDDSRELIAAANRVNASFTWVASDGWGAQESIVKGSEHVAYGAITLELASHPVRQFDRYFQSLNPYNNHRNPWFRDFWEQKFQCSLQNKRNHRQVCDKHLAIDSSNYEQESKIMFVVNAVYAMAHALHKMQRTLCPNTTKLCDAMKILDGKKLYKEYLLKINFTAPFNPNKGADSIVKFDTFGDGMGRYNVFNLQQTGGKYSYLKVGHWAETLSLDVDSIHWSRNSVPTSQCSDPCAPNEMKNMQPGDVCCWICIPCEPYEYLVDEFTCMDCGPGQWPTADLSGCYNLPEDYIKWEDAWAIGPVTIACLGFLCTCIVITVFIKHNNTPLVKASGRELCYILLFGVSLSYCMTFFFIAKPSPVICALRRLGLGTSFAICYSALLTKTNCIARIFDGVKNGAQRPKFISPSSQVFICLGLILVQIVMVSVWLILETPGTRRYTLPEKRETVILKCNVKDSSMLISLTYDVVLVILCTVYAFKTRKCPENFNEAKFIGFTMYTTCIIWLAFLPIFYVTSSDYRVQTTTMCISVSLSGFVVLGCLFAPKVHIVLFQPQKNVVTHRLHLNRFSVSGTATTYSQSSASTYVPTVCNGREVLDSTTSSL", "assay": "inhibitors of rat mGlu3 Galpha15 signaling – TREx293 cells, calcium flux, mGlu3 NAM project, dose response (AID 651840)", "assay_type": "functional"}, "[11]": {"assay": "kidney cell line viability loss – HEK293T, luminescence plate reader, powder samples, set 4, cytotoxicity control, dose response (AID 651863)", "assay_type": "functional, cell-based", "conditions": "HEK293"}, "[12]": {"assay": "Late stage assay provider results from the probe development effort to identify selective inhibitors of heat shock protein 90 (HSP90): Absorbance-based cell proliferation assay in SKBR3 cells.", "assay_type": "functional", "conditions": "SK-BR-3"}, "[13]": {"assay": "Late stage assay provider results from the probe development effort to identify selective inhibitors of heat shock protein 90 (HSP90): Absorbance-based cell proliferation assay in MCF7 cells.", "assay_type": "functional"}, "[14]": {"biological_target": "Potassium channel subfamily K member 9 (Homo sapiens, UniProt Q9NPC2)", "sequence (Q9NPC2 whole entry)": "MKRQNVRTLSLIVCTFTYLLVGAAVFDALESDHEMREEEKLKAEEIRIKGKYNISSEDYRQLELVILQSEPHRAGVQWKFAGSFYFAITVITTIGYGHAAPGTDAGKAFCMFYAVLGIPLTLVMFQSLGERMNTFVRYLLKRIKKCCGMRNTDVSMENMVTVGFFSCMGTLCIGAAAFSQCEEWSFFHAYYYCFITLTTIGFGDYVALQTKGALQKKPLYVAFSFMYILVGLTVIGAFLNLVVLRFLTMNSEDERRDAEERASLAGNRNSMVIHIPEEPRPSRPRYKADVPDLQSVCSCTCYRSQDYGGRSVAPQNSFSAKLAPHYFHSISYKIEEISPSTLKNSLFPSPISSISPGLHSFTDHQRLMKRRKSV", "assay": "KCNK9 flux blockade, concentration-response – cell-based, FluxOR thallium flux, selectivity assay for TASK1 inhibitor project, SAR follow-up (AID 652211)", "assay_type": "functional"}, "[15]": {"biological_target": "Potassium channel subfamily K member 3 (Homo sapiens, UniProt O14649)", "sequence (O14649 whole entry)": "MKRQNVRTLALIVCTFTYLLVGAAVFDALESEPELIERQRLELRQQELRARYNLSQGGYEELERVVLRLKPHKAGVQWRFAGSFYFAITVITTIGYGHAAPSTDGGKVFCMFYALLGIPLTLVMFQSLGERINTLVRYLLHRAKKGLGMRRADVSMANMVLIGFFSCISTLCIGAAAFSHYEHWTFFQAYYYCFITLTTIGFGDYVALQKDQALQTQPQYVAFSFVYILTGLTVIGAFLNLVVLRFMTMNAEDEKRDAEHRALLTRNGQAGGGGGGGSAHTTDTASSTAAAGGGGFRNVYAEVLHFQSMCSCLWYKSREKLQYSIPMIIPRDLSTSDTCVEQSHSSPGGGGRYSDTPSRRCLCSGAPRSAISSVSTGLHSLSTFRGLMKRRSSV", "assay": "inhibition of human KCNK3 channel flux – CHO cells, FluxOR thallium flux, SAR follow-up (AID 652212)", "assay_type": "functional"}, "[16]": {"biological_target": "Potassium channel subfamily K member 3 (Rattus norvegicus, UniProt O54912)", "sequence (O54912 whole entry, the tested form may be a part)": "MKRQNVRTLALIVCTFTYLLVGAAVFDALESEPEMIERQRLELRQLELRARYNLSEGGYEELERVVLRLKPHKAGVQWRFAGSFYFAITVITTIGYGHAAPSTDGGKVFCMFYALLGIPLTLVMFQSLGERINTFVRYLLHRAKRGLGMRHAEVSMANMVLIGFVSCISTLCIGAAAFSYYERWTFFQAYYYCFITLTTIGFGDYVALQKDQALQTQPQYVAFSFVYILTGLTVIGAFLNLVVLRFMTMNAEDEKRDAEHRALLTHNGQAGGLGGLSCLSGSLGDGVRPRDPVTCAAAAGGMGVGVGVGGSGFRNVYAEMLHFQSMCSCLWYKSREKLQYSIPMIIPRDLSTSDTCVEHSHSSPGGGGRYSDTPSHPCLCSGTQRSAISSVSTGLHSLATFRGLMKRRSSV", "assay": "SAR analysis for the identification of selective inhibitors of the two-pore domain potassium channel TASK1(KCNK3):Automated Electrophysiology.", "assay_type": "functional"}, "[17]": {"assay": "NIH-3T3 fibroblast cytotoxicity, dose response, cytotoxicity control, cell-based, fluorescence, Alamar Blue, secondary assay (AID 2327);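 further: NIH-3T3 mouse fibroblasts cultured with fluconazole at 8 µg/mL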", "assay_type": "functional"}, "[18]": {"assay": "fluconazole-exposed Candida albicans growth modulators – fluorescence, retest, confirmation (AID 2467)", "assay_type": "functional, cell-based"}, "[19]": {"assay": "Luminescence Cell-Based Dose Retest to Confirm Inhibitors of Cancer Stem Cells. [Related pubchem assays (depositor defined):AID2717, AID2721]", "assay_type": "functional, Homo sapiens", "conditions": "Homo sapiens"}, "[20]": {"assay": "HGIII-sPLA2 enzyme inhibition potency – biochemical, QFRET, IC50, dose response (AID 743457);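 further: green fluorescence rise as the enzyme cleaves BODIPY PC-A2 in liposomes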"}, "T-cell": {"test_system": "T-cell", "assay": "loss of vesicle association with mouse CD8+ T cells – mouse 2C CD8+ T cells, flow cytometry, dose response (AID 485284)", "assay_type": "functional"}, "[21]": {"biological_target": "T1, Mannose-6-phosphate isomerase (Homo sapiens, UniProt P34949)", "T1 sequence (P34949 whole entry)": "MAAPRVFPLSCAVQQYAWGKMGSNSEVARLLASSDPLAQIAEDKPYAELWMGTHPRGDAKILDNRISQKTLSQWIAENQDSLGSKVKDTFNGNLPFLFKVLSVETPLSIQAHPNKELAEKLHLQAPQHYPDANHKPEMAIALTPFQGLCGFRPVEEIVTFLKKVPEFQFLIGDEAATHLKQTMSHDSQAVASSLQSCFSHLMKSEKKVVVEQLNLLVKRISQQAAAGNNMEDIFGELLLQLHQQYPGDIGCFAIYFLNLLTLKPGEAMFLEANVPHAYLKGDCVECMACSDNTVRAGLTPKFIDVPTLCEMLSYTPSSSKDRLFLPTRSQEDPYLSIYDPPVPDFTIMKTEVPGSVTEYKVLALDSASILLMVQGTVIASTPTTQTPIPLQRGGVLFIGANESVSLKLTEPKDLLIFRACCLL", "assay": "MPI enzyme activity inhibition – biochemical, fluorescence intensity, coupled assay, primary screen (AID 1209)"}, "[22]": {"assay": "optical artefact potency, substrate without enzyme – biochemical, fluorescence intensity, triplicate, artefact control for kallikrein-7 zymogen activator project, dose response (AID 720493)"}, "Kallikrein-7": {"biological_target": "Kallikrein-7 (Homo sapiens, UniProt P49862)", "sequence (P49862 whole entry)": "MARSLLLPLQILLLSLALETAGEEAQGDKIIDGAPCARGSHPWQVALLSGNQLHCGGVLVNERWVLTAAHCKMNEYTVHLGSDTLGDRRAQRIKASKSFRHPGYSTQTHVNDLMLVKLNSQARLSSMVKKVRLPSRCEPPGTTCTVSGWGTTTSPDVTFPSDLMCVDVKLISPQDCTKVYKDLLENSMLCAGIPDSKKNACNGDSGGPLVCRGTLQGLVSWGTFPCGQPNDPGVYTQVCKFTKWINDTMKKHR", "assay": "Fluorescence Intensity-based biochemical primary high throughput dose response assay to identify activators of kallikrein-7 (K7) zymogen."}, "[23]": {"assay": "inhibition of ADAM10 peptide cleavage – biochemical, FRET peptide substrate, recombinant human ADAM10, selectivity assay for ADAM17 exosite inhibitor project, dose response (AID 743259)"}, "[24]": {"biological_target": "Disintegrin and metalloproteinase domain-containing protein 17 (Homo sapiens, UniProt P78536)", "sequence (P78536 whole entry, the tested form may be a part)": "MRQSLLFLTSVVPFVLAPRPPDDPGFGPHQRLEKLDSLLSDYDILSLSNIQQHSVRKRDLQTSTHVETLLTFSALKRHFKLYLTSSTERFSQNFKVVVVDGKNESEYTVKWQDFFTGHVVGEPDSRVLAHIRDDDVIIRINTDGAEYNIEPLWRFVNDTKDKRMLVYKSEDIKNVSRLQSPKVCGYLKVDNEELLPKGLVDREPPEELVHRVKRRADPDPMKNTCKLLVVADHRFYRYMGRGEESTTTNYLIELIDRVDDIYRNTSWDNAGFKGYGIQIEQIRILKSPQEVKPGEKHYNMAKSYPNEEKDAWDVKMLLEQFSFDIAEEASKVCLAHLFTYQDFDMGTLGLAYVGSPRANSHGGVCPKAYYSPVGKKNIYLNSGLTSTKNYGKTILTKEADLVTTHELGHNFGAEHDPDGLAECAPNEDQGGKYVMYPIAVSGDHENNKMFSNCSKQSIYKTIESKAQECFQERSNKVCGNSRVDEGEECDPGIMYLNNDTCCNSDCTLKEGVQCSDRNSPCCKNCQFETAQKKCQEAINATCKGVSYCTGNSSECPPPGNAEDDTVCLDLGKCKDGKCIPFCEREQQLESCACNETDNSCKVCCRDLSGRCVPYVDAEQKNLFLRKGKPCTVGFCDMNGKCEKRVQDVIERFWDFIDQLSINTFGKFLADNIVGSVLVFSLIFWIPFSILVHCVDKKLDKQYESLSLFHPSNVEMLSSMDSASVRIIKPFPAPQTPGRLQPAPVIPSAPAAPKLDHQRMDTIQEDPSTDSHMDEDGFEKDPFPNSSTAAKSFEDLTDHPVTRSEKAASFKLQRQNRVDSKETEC", "assay": "exosite inhibitors of ADAM17, dose response, biochemical (AID 743260)"}},
  "note": "The source made the active and inactive calls.",
  "data": [
    {"compound": "COc1ccccc1C#Cc1ccc2c(c1)O[C@@H](CN(C)Cc1ccncc1)[C@H](C)CN([C@H](C)CO)S2(=O)=O", "values": [
      {"measurement": "AC50", "setting": "[1]", "result": "11.5 µM (active)"},
      {"measurement": "AC50", "setting": "[2]", "result": "13.3 µM (active)"},
      {"measurement": "AC50", "setting": "[3]", "result": "94.6 pM (active)"},
      {"measurement": "AC50", "setting": "Paired box protein Pax-8", "result": "2.39 µM (active)"},
      {"measurement": "AC50", "setting": "[4]", "result": "9.35 µM (active)"},
      {"measurement": "AC50", "setting": "[5]", "result": "4.51 µM (active)"},
      {"measurement": "AC50", "setting": "[6]", "result": "7.34 µM (active)"},
      {"measurement": "AC50", "setting": "[7]", "result": "2.28 µM (active)"},
      {"measurement": "AC50", "setting": "[8]", "result": "42.1 µM (active)"},
      {"measurement": "AC50", "setting": "[9]", "result": "27.7 µM (active)"}
    ]},
    {"compound": "COc1ccc(C#Cc2ccc(C(=O)N3CCC(=O)C(C)C3)cc2)cc1", "note": "(configuration not stated)", "values": [
      {"measurement": "IC50", "setting": "[10]", "result": 8.95, "unit": "µM"}
    ]},
    {"compound": "Cc1ccc(S(=O)(=O)NNc2nc(NCC(N)=O)nc3ccccc23)cc1", "values": [
      {"measurement": "AC50", "setting": "[11]", "result": "> 52 µM (inactive)"}
    ]},
    {"compound": "Cc1c(Cl)c(=O)oc2c(C)c(OCc3ccccc3)ccc12", "values": [
      {"measurement": "IC50", "setting": "[12]", "result": "> 100 µM (inactive)"},
      {"measurement": "IC50", "setting": "[13]", "result": "> 100 µM (inactive)"}
    ]},
    {"compound": "Cc1cccc(C(=O)Nc2cccc(NC(=O)c3ccccc3)c2)c1", "values": [
      {"measurement": "IC50", "setting": "[14]", "result": "0.36 µM (active)"},
      {"measurement": "IC50", "setting": "[15]", "result": "0.015 µM (active)"},
      {"measurement": "IC50", "setting": "[16]", "result": "0.075 µM (active)"}
    ]},
    {"compound": "Cc1cc(C)c2nc(NNC(=O)c3cc(-c4cccs4)nc4ccccc34)sc2c1", "values": [
      {"measurement": "EC50", "setting": "[17]", "result": "10.7 µM (active)"},
      {"measurement": "EC50", "setting": "[18]", "result": "> 38 µM (not active)"},
      {"measurement": "AC50", "setting": "[19]", "result": "2.13 µM (active)"},
      {"measurement": "IC50", "setting": "[20]", "result": "53.9 µM (inactive)"}
    ]},
    {"compound": "Cc1c2cccn2cc[n+]1C", "values": [
      {"measurement": "EC50", "setting": "T-cell", "result": "79.2 µM (inactive)"},
      {"measurement": "IC50", "setting": "[21]", "result": "> 50 µM (not active)"},
      {"measurement": "EC50", "setting": "[22]", "result": "> 7.72 µM (active)"},
      {"measurement": "EC50", "setting": "Kallikrein-7", "result": "17.5 µM (inactive)"}
    ]},
    {"compound": "CCOC(=O)c1c(NC(=O)Cn2nc(C(F)F)cc2C(F)F)sc(C)c1C", "values": [
      {"measurement": "IC50", "setting": "[23]", "result": "> 69.5 µM (inactive)"},
      {"measurement": "IC50", "setting": "[24]", "result": "> 69.5 µM (inactive)"}
    ]}
  ]
}
